Entries after “also recorded” stand apart in the source; their conditions may differ.
How the values were obtained:
[1] = target: T1, SHP2-E76K (Homo sapiens, UniProt Q06124, E76K); test: Time-dependent inhibition (preincubation 1-60 min); format: biochemical; conditions: preincubation 1, 5, 10, 20 or 60 min with SHP2-E76K
T1 construct: Recombinant human full-length SHP2 (1–594) WT and E76K mutants; made in house
T1 sequence (Q06124 1-593 E76K): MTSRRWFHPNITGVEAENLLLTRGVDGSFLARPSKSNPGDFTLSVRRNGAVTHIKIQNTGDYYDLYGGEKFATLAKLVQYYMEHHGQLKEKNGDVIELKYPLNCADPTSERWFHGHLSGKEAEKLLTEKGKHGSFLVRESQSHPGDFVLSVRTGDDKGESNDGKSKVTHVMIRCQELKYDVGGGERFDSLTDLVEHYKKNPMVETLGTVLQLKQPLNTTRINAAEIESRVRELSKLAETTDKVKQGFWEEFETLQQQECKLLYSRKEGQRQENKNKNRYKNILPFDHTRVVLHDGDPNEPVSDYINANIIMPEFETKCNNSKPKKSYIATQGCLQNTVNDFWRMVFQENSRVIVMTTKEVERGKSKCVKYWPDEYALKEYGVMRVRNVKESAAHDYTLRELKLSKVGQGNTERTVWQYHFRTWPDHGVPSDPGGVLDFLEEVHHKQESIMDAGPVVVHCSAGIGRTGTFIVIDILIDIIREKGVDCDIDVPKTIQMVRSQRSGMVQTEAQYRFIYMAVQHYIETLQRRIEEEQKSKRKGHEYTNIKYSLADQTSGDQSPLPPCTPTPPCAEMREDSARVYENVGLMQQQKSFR
Method: PTPs contain a highly nucleophilic cysteine that is essential for catalytic activity but is susceptible to oxidation and covalent modifications, which abrogate its nucleophilic function and phosphatase activity ([26]). Because the methylenebenzothiophenone moiety of our inhibitors could potentially act as a Michael acceptor and thus covalently bind to the catalytic cysteine, we tested whether the observed inhibition of SHP2 was dependent on the preincubation time of inhibitor and enzyme. An irreversible covalent inhibitor may show time-dependent inhibition, with increased potency at longer incubation times. Conversely, the potency of a noncovalent inhibitor is expected to be insensitive to the time it is incubated with the enzyme. To test for time-dependent inhibition, SBI-2130 at ten different concentrations was preincubated with SHP2-E76K for 1, 5, 10, 20, or 60 min, before the DiFMUP substrate was added to the reaction mixture and initial rates were recorded (Fig. 3C). […] In addition, we used mass spectrometry to test whether inhibitor:protein adducts are being formed. Specifically, we incubated SHP2cat (5 μM) with SBI-4668 (100 μM) in assay buffer for various times (1, 5, 20, and 60 min) before trypsin proteolysis and subsequent mass spectrometry analysis. […] Finally, we performed a jump-dilution experiment to test for irreversible inhibition of SHP2. […]

[2] = test system: phospho-ERK1/2 (p-ERK1/2) in MOLM-13 AML cells; test: p-ERK1/2 immunoblot, MOLM-13; format: cell-based; conditions: SBI-4668 3, 10, 30 μM, RMC-4550 1 μM
Method: Because SHP2 activity is critical for ERK activation, we used phospho-ERK1/2 (p-ERK1/2) as a more direct readout of SHP2 inhibitor efficacy. […] This p-ERK rebound in MOLM-13 cells treated with RMC-4550 is reminiscent of previously reported data from human hepatoma Hep3B cells treated with SHP099 ([34]). We also tested the effects of SBI-4668 or RMC-4550 on two patient-derived AML samples (Fig. 4F).
Cells cultured in RPMI medium were treated as indicated in the legends to the figures. Total protein extracts were prepared in modified radioimmunoprecipitation assay lysis buffer (25 mM Tris–HCl, pH 7.4, 10% glycerol, 0.2% Triton X-100, 150 mM NaCl, 2 mM Na3VO4, and 1 mM EDTA) containing a protease inhibitor cocktail (Roche Applied Science). Equal amounts of protein were separated on 4 to 12% (p-ERK1/2 blots) or 4 to 20% (SHP2 blots) Bis–Tris gels by SDS-PAGE and transferred to nitrocellulose (p-ERK1/2 blots) or 0.2 μm polyvinylidene fluoride (SHP2 blots) membranes. Membranes were blocked in 5% dry milk (Bio-Rad) in Tris-buffered saline–Tween-20 (TBS–T) (0.1% v/v) for 1 h at RT. Protein-bound membranes were incubated with indicated primary antibody overnight at 4 °C. After washing three times with TBS-T, membranes were incubated for 1 h with horseradish peroxidase–conjugated secondary antibody and then visualized by an ECL Prime detection system (GE Healthcare). Immunoblotting experiments were carried out at least three times, and representative images are shown. Densitometric quantitation of immunoblots was performed using Image Studio Lite Software (LI-COR). Changes of phosphorylated ERK1/2 to total ERK1/2 ratios are expressed as percentage of the vehicle-treated controls. The following antibodies were used: Phospho-Erk1/2 Ab (catalog no.: 9101S; Cell Signaling); total Erk1/2 Ab (catalog no.: 9102S; Cell Signaling); SHP2 Ab (catalog no.: A301-544A; lot no.: 1; Bethyl); and GAPDH (14C10) mAb (catalog no.: 2118S; lot no.: 14; Cell Signaling).

[3] = test system: MDA-MB-468 TNBC cells; test: 11-day colony formation assay, MDA-MB-468; format: cell-based; conditions: 5, 10 or 20 μM, 11 days
Method: Inhibition of SHP2 has been reported to inhibit the growth of cancer cells including Kasumi-1 acute myeloid leukemia (AML) and KYSE-520 esophageal cancer cells ([30]). […] Thus, we treated two TNBC cell lines, BT-549 and MDA-MB-468, with SBI-4668 or the SHP2 allosteric inhibitor SHP099 at various concentrations and determined cell viability after 72 h, compared with the vehicle control (Fig. 4C). […] Next, we performed an 11-day colony formation assay with TNBC cells treated with SBI-4668 or SHP099 at 5, 10, or 20 μM (Fig. 4D).
MDA-MB-468 and […] triple-negative breast cancer cells were maintained in Dulbecco's modified Eagle's medium + 10% FBS supplemented with 1× penicillin–streptomycin/L-glutamine (Omega Scientific). About 1500 cells (in 300 μl) were seeded per well of a standard 24-well tissue culture plate (Falcon) and allowed to adhere for 24 h, before the addition of compound(s) as described. After a further 96 h, media were replaced with fresh media containing the same test compounds and concentrations. After 11 days, media were removed, and cells stained with 0.5% crystal violet (in 20% methanol; Sigma) for 20 min with agitation at 80 rpm. Stain was removed, and plates with stained cells were washed by being submerged in excess deionized water and allowed to air dry overnight before imaging.

| Structure (SMILES) | time-dependent inhibition [1] | p-ERK1/2 levels, MOLM-13, 3 h ([2]; 3 h) | p-ERK1/2 levels, MOLM-13, 24 h ([2]; 24 h) | colony formation, MDA-MB-468 [3] |
| --- | --- | --- | --- | --- |
| Nc1ccc(NC(=O)c2cc(-c3ccc(/C=C4\Sc5ccccc5C4=O)o3)ccc2O)cc1 [SBI-2130, (Z)-N-(4-Aminophenyl)-2-hydroxy-5-(5-((3-oxobenzo[b]thiophen-2(3H)-ylidene)methyl)furan-2-yl)benzamide] | No time-dependent inhibition; also recorded: not time dependent |  |  |  |
| O=C(Nc1ccccc1)c1cc(-c2ccc(/C=C3\Sc4ccccc4C3=O)o2)ccc1O [SBI-4668, (Z)-2-Hydroxy-5-(5-((3-oxobenzo[b]thiophen-2(3H)-ylidene)methyl)furan-2-yl)-N-phenylbenzamide] |  | dose-dependently inhibits ERK1/2 activation | dose-dependently inhibits ERK1/2 activation | undetectable |

Source: article PMC8760490, “Discovery of novel furanylbenzamide inhibitors that target oncogenic tyrosine phosphatase SHP2 in leukemia cells” (The Journal of Biological Chemistry, 2021)
